Type in all cases: in vivo
Assay [1] concerns fall armyworm larvae (Spodoptera frugiperda). The experiment in a line: Spodoptera frugiperda spray test (SPODFR). The settings on record: in Zea mays, 168 h. In outline:
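Compound in acetone/dimethylformamide, diluted with water containing 1000 ppm alkylarylpolyglycol ether emulsifier. Maize leaf sections sprayed, dried, then infested with fall armyworm larvae. Mortality (%) scored after 7 days, 100% meaning all caterpillars killed.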

Assay [2] has as its system adult brown dog ticks (Rhipicephalus sanguineus). Briefly: Rhipicephalus sanguineus in-vitro contact test, adult brown dog ticks. The settings on record: Rhipicephalus sanguineus; 1 μg/cm^2 (=100 g/ha), after 48 hours; read-out: efficacy (ticks dead or moribund). In a few lines:
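Glass tubes are coated with compound dissolved in acetone, a 900 ppm solution yielding 5 μg/cm^2 on the inner surface. Adult ticks (5-10 per tube) are kept on the dry film at room temperature for 48 h, then those unable to escape 45-50° C heat are counted as dead or moribund.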

Assay [3] relates to Rhipicephalus (Boophilus) microplus larvae (strain Parkhurst, resistant against synthetic pyrethroids). Briefly: Rhipicephalus (Boophilus) microplus in-vitro contact test, larval cattle tick. As to conditions: Rhipicephalus microplus; 1 μg/cm^2 (=100 g/ha), after 48 hours; read-out: efficacy (larvae dead or moribund). In outline: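 Compound in acetone coated on glass tube inner walls; 900 ppm solution gives 5 μg/cm^2. Pyrethroid-resistant Parkhurst larvae (20-50 per tube) held at 27° C., 85% relative humidity; efficacy assessed after 48 h by scoring negative geotactic behavior after tapping larvae to tube bottom.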

Assay [4] has as its system adult unfed cat fleas (Ctenocephalides felis). The experiment in a line: Ctenocephalides felis oral test. As to conditions: 48 h, 100 ppm in citrated cattle blood, after 2 days. How it is done: Ctenocephalides felis—Oral Test
(§1) Solvent: Dimethyl Sulfoxide
To produce a suitable preparation of active compound, 10 mg of active compound are dissolved in 0.5 mL solvent, and the concentrate is diluted with citrated cattle blood to the desired concentration.
Approximately 20 adult unfed cat fleas (Ctenocephalides felis) are placed in a flea chamber whose top and bottom is covered with gauze. A chamber whose bottom is sealed with parafilm, is filled with the blood-compound solution and placed on top of the flea chamber, so that the fleas can suck the blood. The blood chamber is heated to 37° C. whereas the flea chamber is kept at room temperature.
After 2 days mortality in % is determined. 100% means all the fleas have been killed; 0% means none of the fleas have been killed.

Assay [5] relates to larvae of the southern green stink bug (Nezara viridula). Briefly: Nezara viridula spray test. As to conditions: Nezara viridula, in Hordeum vulgare, 96 h. How it is done:
Nezara viridula—Spray Test
(§2) Solvent: 78.0 parts by weight of acetone • • 1.5 parts by weight of dimethylformamide
(§3) Emulsifier: alkylarylpolyglycol ether
To produce a suitable preparation of active compound, 1 part by weight of active compound is mixed with the stated amount of solvent, and the concentrate is diluted with water, containing an emulsifier concentration of 1000 ppm, to the desired concentration. Further test concentrations are prepared by dilution with emulsifier containing water.
Barley plants (Hordeum vulgare) are sprayed with a test solution containing the desired concentration of the active ingredient and are infested with larvae of the southern green stink bug (Nezara viridula).
After 4 days mortality in % is determined. 100% means all the stink bugs have been killed; 0% means none of the stink bugs have been killed.

The test system of assay [6] is adult cat fleas (Ctenocephalides felis). The experiment in a line: Ctenocephalides felis in-vitro contact test, adult cat flea. The settings on record: Ctenocephalides felis; 1 μg/cm^2 (=100 g/ha), after 48 hours; read-out: efficacy (fleas dead or moribund).
Assay [7] concerns green peach aphid (Myzus persicae). The experiment in a line: Myzus persicae spray test (MYZUPE). As to conditions: in Brassica rapa, foliar, 120 h. How it is done:
Myzus persicae—Spray Test
Solvent: 78.0 parts by weight acetone • 1.5 parts by weight dimethylformamide
as §3
(§4) To produce a suitable preparation of active compound, 1 part by weight of active compound is mixed with the stated amount of solvents and is diluted with water, containing an emulsifier concentration of 1000 ppm, to the desired concentration. Further test concentrations are prepared by dilution with emulsifier containing water.
Chinese cabbage (Brassica pekinensis) leaf disks infected with all instars of the green peach aphid (Myzus persicae), are sprayed with a preparation of the active ingredient of the desired concentration.
(§5) After 5 days mortality in % is determined. 100% means all aphids have been killed and 0% means none of the aphids have been killed.
Myzus persicae—Spray Test (MYZUPE
After the specified period of time, mortality in % is determined. 100% means all aphids have been killed and 0% means none of the aphids have been killed.

Assay [8] relates to adult engorged female ticks (Rhipicephalus microplus). Briefly: Rhipicephalus (Boophilus) microplus injection test. The settings on record: 4 μg/tick, after 7 days. How it is done: Rhipicephalus (Boophilus) Microplus—Injection Test
as §1
To produce a suitable preparation of active compound, 10 mg of active compound are dissolved in 0.5 mL solvent, and the concentrate is diluted with solvent to the desired concentration.
Five adult engorged female ticks (Rhipicephalus microplus) are injected with 1 μL compound solution into the abdomen. The ticks are transferred into replica plates and incubated in a climate chamber.
After 7 days egg deposition of fertile eggs is monitored. Eggs where fertility is not visible are stored in a climate chamber till hatching after about 42 days. An efficacy of 100% means all eggs are infertile; 0% means all eggs are fertile.

Assay [9] concerns brown planthopper (Nilaparvata lugens). Briefly: Nilaparvata lugens spray test. As to conditions: Nilaparvata lugens, in Oryza sativa, 96 h. How it is done: Nilaparvata lugens—Spray Test
as §2, §3, §4
Rice plants (Oryza sativa) are sprayed with a preparation of the active ingredient of the desired concentration and the plants are infested with the brown planthopper (Nilaparvata lugens).
After 4 days mortality in % is determined. 100% means all planthoppers have been killed and 0% means none of the planthoppers have been killed.

For assay [10], the system named is green peach aphid (Myzus persicae). Briefly: Myzus persicae oral test. As to conditions: 120 h. How it is done: Solvent: 100 parts by weight acetone
To produce a suitable preparation of active compound, 1 part by weight of active compound is mixed with the stated amount of solvent, and the concentrate is diluted with water to the desired concentration.
50 μL compound solution is filled in microtiter plates and 150 μL IPL41 insect medium (33%+15% sugar) is added to obtain a total volume of 200 μL per well. Afterwards the plates are sealed with parafilm through which a mixed population of the green peach aphid (Myzus persicae) can suck on the compound preparation.
as §5

The test system of assay [11] is larvae of the banded cucumber beetle (Diabrotica balteata). Briefly: Diabrotica balteata spray test. As to conditions: Diabrotica balteata, 168 h; 100 g/ha (=32 μg/well), wheat seeds, after 7 days; read-out: efficacy (seedlings grown). In a few lines: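 Efficacy was read 7 days after infesting each unit with 10–20 banded cucumber beetle larvae, as % of seedlings growing like untreated, uninfested controls. Before infestation, wheat seeds germinated 1 day on agar (5 per well) were sprayed with the active ingredient. The active was formulated in acetone/DMF and diluted in water containing emulsifier.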

In assay [12] the test system is adult mosquitoes Aedes aegypti strain MONHEIM. Briefly: Aedes aegypti test (AEDSAE surface treatment & contact assay). The settings on record: surface concentration 4 mg/m^2, 30 min exposure, 24 hours after contact, read-out: efficacy (mortality). How it is done: Aedes aegypti Test (AEDSAE Surface Treatment & Contact Assay
(§6) Solvent: Aceton+2000 ppm rapeseed oil methyl ester (RME)
In order to produce a sufficient, active ingredient containing solution it is necessary to solve the test compound in the solvent-mix (acetone at 2 mg/ml/RME 2000 ppm). This solution is pipetted onto a glazed tile and after evaporation of the acetone, adult mosquitoes of the species Aedes aegypti strain MONHEIM are placed onto the dried surface. The exposure time is 30 minutes. Mortality in percent (%) is determined 24 hours after contact of the insects to the treated surface. 100% mortality means that all tested insects are dead, whereas 0% means that no insect died.

The subject of assay [13] is adult Blattella germanica strain PAULINIA
The experiment in a line: Blattella germanica test (BLTTGE surface treatment & contact assay). The settings on record: surface concentration 20 mg/m^2, 30 min exposure, 24 hours after contact, read-out: efficacy (mortality). How it is done: Blattella germanica Test (BLTTGE Surface Treatment & Contact Assay
as §6
In order to produce a sufficient, active ingredient containing solution it is necessary to solve the test compound in the solvent-mix (acetone at 2 mg/ml/RME 2000 ppm). This solution is pipetted onto a glazed tile and after evaporation of the acetone, adult animals of the species Blattella germanica strain PAULINIA are placed onto the dried surface. The exposure time is 30 minutes.
Mortality in percent (%) is determined 24 hours after contact of the insects to the treated surface. 100% mortality means that all tested insects are dead, whereas 0% means that no insect died.

The text below walks through data of US20240368125A1, “NOVEL PYRAZINYL-TRIAZOLE COMPOUNDS AS PESTICIDES” (Bayer Aktiengesellschaft, priority 2021, published 2024).

One may read the mortality as the percentage killed.

In the case of `Cc1nc([C@H](C)NC(=O)c2cc(C(F)(F)F)cc(C(F)(F)F)c2)n(-c2cnc(C(=O)N(C)C3CC3)cn2)n1` [Example I-001], the mortality at 100 g/ha in assay [1] is 100%; in assay [7] it was 90%. Also, the pest or weed control at 1 µg/cm2, 100 g/ha in assay [2] is 100%. Moreover, the pest or weed control at 1 µg/cm2 in assay [3] and in assay [6] was 100% each time. Further, in assay [4], the mortality at 100 ppm was 100%. Also, the mortality at 500 g/ha in [5] and in assay [9] was 100% each time. Further, in assay [8], the “efficacy (infertile eggs)” value amounted to 100%.
With `C[C@H](NC(=O)c1cc(OC(F)(F)F)cc(S(C)(=O)=O)c1)c1ncnn1-c1cnc(C(=O)N(C)C2CC2)cn1` [Example I-004], the mortality at 20 ppm in [10] came to 100%. The results for the mortality at 100 g/ha in assay [1] and in assay [7] were 100% and 90%, respectively. For the same compound, the pest or weed control at 1 µg/cm2, 100 g/ha in [2] stood at 100%. In addition, the pest or weed control at 1 µg/cm2 in [3] and in assay [6] was 100% each time. The mortality at 100 ppm in assay [4] worked out at 100%. Besides, the mortality at 500 g/ha is 70% in assay [5] and 100% in assay [9]. Moreover, the pest or weed control at 32 µg/disc, 100 g/ha in [11] worked out at 100%. Also, the “efficacy (infertile eggs)” value in assay [8] is listed as 100%.
With `C[C@H](NC(=O)c1cc(C(F)(F)F)cc(C(F)(F)F)c1)c1ncnn1-c1cnc(C(N)=O)cn1` [Example I-010], the results for the mortality at 100 g/ha in assay [1] and in assay [7] were 100% and 90%, respectively. For the same compound, the pest or weed control at 1 µg/cm2, 100 g/ha in assay [2] amounted to 100%. Moreover, the pest or weed control at 1 µg/cm2 in assay [3] and in assay [6] was 100% in each case. The compound also came in with a mortality at 100 ppm in assay [4] of 100%. Besides, the mortality at 500 g/ha in assay [5] and in [9] was 100% each time. In addition, the “efficacy (infertile eggs)” value in assay [8] is given as 100%.
The compound `CCN(C)C(=O)c1cnc(-n2ncnc2[C@H](C)NC(=O)c2cc(OC(F)(F)F)cc(S(C)(=O)=O)c2)cn1` [Example I-018] showed a mortality at 20 ppm in assay [10] of 100%. The mortality at 100 g/ha in assay [1] and in assay [7] was 100% in each case. Also, the pest or weed control at 1 µg/cm2, 100 g/ha in assay [2] was 100%. Further, the pest or weed control at 1 µg/cm2 in assay [3] was found to be 90%; in assay [6] it was 100%. Moreover, the mortality at 500 g/ha in assay [5] and in assay [9] was 100% throughout. For the same compound, the pest or weed control at 32 µg/disc, 100 g/ha in assay [11] came out at 100%.
For the compound `CNC(=O)c1cnc(-n2ncnc2[C@H](C)NC(=O)c2cc(OC(F)(F)F)cc(S(C)(=O)=O)c2)cn1` [Example I-019], the mortality at 4 mg/m2 in assay [12] was 80 to 100%. Also, the mortality at 100 g/ha in assay [1] came to 100%; in assay [7], 90%. Besides, the pest or weed control at 1 µg/cm2, 100 g/ha in [2] is 100%. In addition, the pest or weed control at 1 µg/cm2 in assay [3] and in assay [6] was 100% in each case. For the same compound, the mortality at 500 g/ha in assay [5] and in assay [9] was 100% throughout. Further, the pest or weed control at 32 µg/disc, 100 g/ha in [11] turned out to be 100%. Besides, in [13], the mortality at 20 mg/m2 fell in the range of 80 to 100%.
Take `C[C@H](NC(=O)c1cc(C(F)(F)F)cc(S(C)(=O)=O)c1)c1ncnn1-c1cnc(C(N)=O)cn1` [Example I-030]: the mortality at 20 ppm in assay [10] worked out at 100%. The mortality at 500 g/ha in assay [5] worked out at 90%. Moreover, the pest or weed control at 32 µg/disc, 100 g/ha in assay [11] is 100%.
